In PubChem BioAssay AID192 (DTP/NCI, 2004) one finds T/C data, which are given here for 24 compounds.

Inconclusive results and toxic doses are left out. Peptide text beside a SMILES is read from it. * marks the point of attachment. Cbz = O=C(OCc1ccccc1)*

The experiment has as its system BDF1 mice, B16 melanoma ip, median survival T/C. Description: NCI In Vivo Anticancer Drug Screen. Data for tumor model B16 Melanoma (intraperitoneal) in B6D2F1 (BDF1) mice. To be noted: endpoint: median survival time, higher = longer survival. How it is done:
The antitumor activity of compounds was measured in mice bearing transplantable tumors. Survival or tumor size were measured and the results are expressed as the measurement made in the treated group (T) divided by the measurement made in the vehicle treated control group (C). The tumor model used in this assay is B16 Melanoma (intraperitoneal) in B6D2F1 (BDF1) mice

[1] abbreviates: dose: 25.0 mg/kg/injection, schedule: Q01DX009 (ip), vehicle: Klucel (hydroxypropylcellulose) (HPC).
[2] abbreviates: dose: 50.0 mg/kg/injection, schedule: Q01DX009 (ip), vehicle: Klucel (hydroxypropylcellulose) (HPC).
The mark [3] stands for this setting: dose: 100.0 mg/kg/injection, schedule: Q01DX009 (ip), vehicle: Klucel (hydroxypropylcellulose) (HPC).
Where [4] appears, read: dose: 200.0 mg/kg/injection, schedule: Q01DX009 (ip), vehicle: Klucel (hydroxypropylcellulose) (HPC).
[5] abbreviates: dose: 400.0 mg/kg/injection, schedule: Q01DX009 (ip), vehicle: Klucel (hydroxypropylcellulose) (HPC).
The mark [6] stands for this setting: dose: 25.0 mg/kg/injection, schedule: Q01DX009 (ip), vehicle: saline.
[7] abbreviates: dose: 50.0 mg/kg/injection, schedule: Q01DX009 (ip), vehicle: saline.
Setting [8] is: dose: 100.0 mg/kg/injection, schedule: Q01DX009 (ip), vehicle: saline.
Setting [9] is: dose: 50.0 mg/kg/injection, schedule: Q01DX009 (ip), vehicle: saline with Tween-80.
Setting [10] is: dose: 100.0 mg/kg/injection, schedule: Q01DX009 (ip), vehicle: saline with Tween-80.
[11] abbreviates: dose: 200.0 mg/kg/injection, schedule: Q01DX009 (ip), vehicle: saline with Tween-80.
Where [12] appears, read: dose: 12.5 mg/kg/injection, schedule: Q01DX009 (ip), vehicle: saline.
Setting [13] is: dose: 12.5 mg/kg/injection, schedule: Q01DX009 (ip), vehicle: saline with Tween-80.
Setting [14] is: dose: 25.0 mg/kg/injection, schedule: Q01DX009 (ip), vehicle: saline with Tween-80.
Where [15] appears, read: dose: 6.25 mg/kg/injection, schedule: Q01DX009 (ip), vehicle: saline with Tween-80.

On to `CC(=O)OCC12CCC(C)=CC1OC1C(OS(C)(=O)=O)C(=O)C2(C)C12CO2` (stereo not given), for which the T/C reads like this: (dose: 0.5 mg/kg/injection, schedule: Q01DX009 (ip), vehicle: saline) 101 % of control; (dose: 1.0 mg/kg/injection, schedule: Q01DX009 (ip), vehicle: saline) 95 % of control; (dose: 2.0 mg/kg/injection, schedule: Q01DX009 (ip), vehicle: saline) 104 % of control; (dose: 4.0 mg/kg/injection, schedule: Q01DX009 (ip), vehicle: saline) 88 % of control.
For the compound `NN(CC1=COc2ccccc2O1)Cc1ccccc1`, the T/C is 94 % of control (dose: 12.5 mg/kg/injection, schedule: Q01DX009 (ip), vehicle: Klucel (hydroxypropylcellulose) (HPC)); 94 % of control under setting [1]; 91 % of control under setting [2]; 105 % of control under setting [3]; 91 % of control (dose: 200.0 mg/kg/injection, schedule: Q04DX003 (ip), vehicle: Klucel (hydroxypropylcellulose) (HPC)).
For the compound `O=C(OCC(COC(=O)c1ccccc1)(COC(=O)c1ccccc1)COC(=O)c1ccccc1)c1ccccc1`, the T/C is, setting by setting: under setting [3], 111 % of control; under setting [4], 102 % of control; under setting [5], 92 % of control.
Regarding `CC[N+](CC)(CC)CCC[n+]1ccc(/C=N\O)cc1`, the T/C is, setting by setting: under setting [6], 111 % of control; under setting [7], 111 % of control; under setting [8], 111 % of control.
As for `CC1(c2ccccc2)C(C#N)C(=O)NC(=O)C1C#N` (stereo not given), the T/C reads like this: under setting [9], 89 % of control; under setting [10], 89 % of control; under setting [11], 89 % of control.
With `COc1cc(C(=O)OC(C)CN2CCN(C(=O)c3cc(OC)c(OC)c(OC)c3)CC2)cc(OC)c1OC` (stereo not given), the T/C reads like this: under setting [12], 116 % of control; under setting [6], 105 % of control; under setting [7], 100 % of control; under setting [8], 110 % of control.
`O=C(CCCCC(=O)Nc1ccc(C2=NCCN2)cc1)Nc1ccc(C2=NCCN2)cc1`: the T/C is 96 % of control (dose: 50.0 mg/kg/injection, schedule: Q04DX003 (ip), vehicle: saline); 93 % of control (dose: 100.0 mg/kg/injection, schedule: Q04DX003 (ip), vehicle: saline); 90 % of control (dose: 200.0 mg/kg/injection, schedule: Q04DX003 (ip), vehicle: saline); 86 % of control (dose: 400.0 mg/kg/injection, schedule: Q04DX003 (ip), vehicle: saline).
For `CC(=O)NNC(=O)c1cnccn1`, the T/C was 97 % of control (dose: 22.5 mg/kg/injection, schedule: Q01DX009 (ip), vehicle: saline); 97 % of control (dose: 45.0 mg/kg/injection, schedule: Q01DX009 (ip), vehicle: saline); 90 % of control (dose: 90.0 mg/kg/injection, schedule: Q01DX009 (ip), vehicle: saline).
With `COC(=O)c1cc(I)ccc1O`, the T/C reads like this: under setting [10], 102 % of control; under setting [11], 104 % of control; (dose: 400.0 mg/kg/injection, schedule: Q01DX009 (ip), vehicle: saline with Tween-80) 102 % of control.
In the case of `Nc1cccc(NC=O)c1`, the T/C is 102 % of control under setting [13], 97 % of control under setting [14] and 97 % of control under setting [9].
As for `O=CCC(O)C(O)C(O)CO` (stereo not given), the T/C is 104 % of control (dose: 300.0 mg/kg/injection, schedule: Q01DX009 (ip), vehicle: suspension in saline); 100 % of control (dose: 600.0 mg/kg/injection, schedule: Q01DX009 (ip), vehicle: suspension in saline); 100 % of control (dose: 1200.0 mg/kg/injection, schedule: Q01DX009 (ip), vehicle: suspension in saline); 101 % of control (dose: 1800.0 mg/kg/injection, schedule: Q01DX009 (ip), vehicle: suspension in saline).
With `COc1cc2c(c(OC)c1OC)-c1ccc(OC)c(=O)cc1[C@@H](NC(=O)CCl)CC2`, the T/C is 154 % of control (dose: 0.25 mg/kg/injection, schedule: Q01DX009 (ip), vehicle: saline with Tween-80) and 161 % of control (dose: 0.5 mg/kg/injection, schedule: Q01DX009 (ip), vehicle: saline with Tween-80).
Consider `O=C(CCl)N1CCC2(CC1)SSC1(CCN(C(=O)CCl)CC1)S2`, for which the T/C under setting [13] was 100 % of control and the T/C under setting [14] was 90 % of control.
As for `Cc1cc(OC(=O)c2ccc(N(C)C)cc2)ccc1[N+](=O)[O-]`, the T/C was 92 % of control under setting [1], 92 % of control under setting [2] and 88 % of control under setting [3].
In the case of `COc1ccc(NC(=O)Nc2cccc(Cl)c2C)cc1`, the T/C was 100 % of control under setting [14] and 102 % of control under setting [9].
`c1ccc(-c2nnc(-c3ccccn3)nn2)nc1`: the T/C under setting [2] is 103 % of control, the T/C under setting [3] was 107 % of control, the T/C under setting [4] was 97 % of control and the T/C under setting [5] was 96 % of control.
With `NC(=O)C(Cc1ccccc1)NC(=O)C(Cc1ccccc1)NC(=O)C(Cc1ccccc1)NC(=O)OCc1ccccc1` (stereo not drawn) (Cbz-Phe-Phe-Phe-NH2; configuration not given here), the T/C is 100 % of control (dose: 3.12 mg/kg/injection, schedule: Q01DX009 (ip), vehicle: saline with Tween-80); 89 % of control under setting [15]; 96 % of control under setting [13]; 91 % of control under setting [14].
With `CCCCCCCCCCCCCCCC(=O)N(C/C=C/CN(C(=O)CCCCCCCCCCCCCCC)C(C)CCCN(CC)CC)C(C)CCCN(CC)CC` (stereo not given), the T/C (dose: 3.13 mg/kg/injection, schedule: Q01DX009 (ip), vehicle: other) is 98 % of control; the T/C (dose: 6.25 mg/kg/injection, schedule: Q01DX009 (ip), vehicle: other) was 99 % of control; the T/C (dose: 12.5 mg/kg/injection, schedule: Q01DX009 (ip), vehicle: other) was 93 % of control.
As for `Cc1cc(=O)[nH]c2c1C(=O)c1c(C)cc(=O)n(C)c1C2=O`, the T/C runs as follows: (dose: 0.5 mg/kg/injection, schedule: Q04DX003 (ip), vehicle: Klucel (hydroxypropylcellulose) (HPC)) 92 % of control; (dose: 1.25 mg/kg/injection, schedule: Q04DX003 (ip), vehicle: Klucel (hydroxypropylcellulose) (HPC)) 102 % of control; (dose: 2.5 mg/kg/injection, schedule: Q04DX003 (ip), vehicle: Klucel (hydroxypropylcellulose) (HPC)) 89 % of control.
Regarding `CN(CCCN(C)CCC1CCCCC1)CCC1CCCCC1`, the T/C was 92 % of control under setting [13] and 95 % of control under setting [14].
As for `CN=C(N)NC`, the T/C is 95 % of control under setting [7]; 98 % of control under setting [8]; 104 % of control (dose: 200.0 mg/kg/injection, schedule: Q01DX009 (ip), vehicle: saline).
Take `N#CNN=Nc1cc(Cl)c(Cl)c(Cl)c1`: the T/C is, setting by setting: under setting [12], 120 % of control; under setting [6], 111 % of control.
In the case of `Fc1cccc(/C=C2/c3cc(Cl)ccc3-c3c(Cl)cc(Cl)cc32)c1`, the T/C is 90 % of control under setting [15], 93 % of control under setting [13] and 88 % of control under setting [14].
In the case of `COc1cc([C@@H]2c3cc4c(cc3[C@H](O)[C@H]3COC(=O)[C@@H]23)OCO4)cc(OC)c1OC`, the T/C (dose: 6.0 mg/kg/injection, schedule: Q01DX009 (ip), vehicle: Klucel (hydroxypropylcellulose) (HPC)) was 105 % of control; the T/C (dose: 12.0 mg/kg/injection, schedule: Q01DX009 (ip), vehicle: Klucel (hydroxypropylcellulose) (HPC)) was 113 % of control; the T/C (dose: 24.0 mg/kg/injection, schedule: Q01DX009 (ip), vehicle: Klucel (hydroxypropylcellulose) (HPC)) is 113 % of control.
